46 compounds from patent US20240315992A1, “AMINOXY ACID-BASED ANTIBACTERIAL COMPOUNDS AND METHODS THEREOF” (The University of Hong Kong, priority 2023, published 2024) can be followed below.

Structures are written as SMILES. In brackets after ≈: the same amount, converted by molar mass. A value given as a limit tells only on which side of the number the result lay.

The subject of the assay is multidrug resistant Staphylococcus aureus Mu3. The assay can be described thus: MIC by CLSI broth micro-dilution, MRSA Mu3. In kind it is cell-based. The following applies: MRSA, CLSI broth micro-dilution, CAMH, read-out: Minimum inhibitory concentration (μM) in MRSA Mu3. On the procedure: Aminoxy acids were synthesized by the standard peptide coupling procedures. Minimum inhibitory concentration was determined using CLSI broth micro-dilution method in 96-wells microtitre plates. Minimum inhibitory concentration is defined as the lowest concentration of the compound that inhibits visible growth of the bacteria. All experiments were performed three times. 24 compounds including aminoxy acid monomers and dipeptides have been identified to show toxicity against multidrug resistant Staphylococcus aureus Mu3 and summarized in Table 1. The minimum inhibitory concentration of compound 8 and compound 35 on other gram-positive bacteria was also evaluated and summarized in Table 2. […] As shown in FIGS. 3A-3B there are no observable hemolysis for compound 8 and compound 35 towards human red blood cell.
Bacteria were streaked from the glycerol stock into BHI agar and were incubated overnight. Single colony was picked for the overnight culture in cation-adjusted Mueller Hinton broth (CAMH), LB or BHI. The overnight culture was sub-cultured and regrew to exponential phase for the experiment.
MIC was determined by CLSI broth micro-dilution method in 96-wells microtitre plates. For compounds dissolved in water, 100 μL of 2× testing concentration was added to the first well of each column, followed by two-fold serial dilution for successive wells with 50 μL medium. For chemical compounds dissolved in DMSO, the compounds were two-fold serial diluted by DMSO in a DMSO-compatible 96-well plate. 1 μL of compound in DMSO was transferred into 96-wells microtitre plate containing 50 μL medium to give 2× testing concentration. An overnight culture of bacteria was grown into exponential phase. The bacteria culture was diluted to 1×10^6 CFU/mL and 50 μL of diluted culture were added into each well. The test plates were kept in a 37° C. incubator overnight. Optical density was recorded by DTX 880 multimode detector (Beckman Coulter, California, US). MIC is defined as the lowest concentration of the compound that inhibits visible growth of bacteria. Biological replicates were performed. CAMH was used for bacteria culture and MIC test except S. pneumoniae, L. monocytogenes, E. faecalis and M. smegmatis for which BHI was used as culture medium
For `CC(C)(C)OC(=O)[C@@H](COCc1ccccc1)ONC(=O)c1cc(C(F)(F)F)cc(C(F)(F)F)c1` [Compound 1], the MIC amounted to 12.5 µM (≈ 6.34 µg/mL). Then `O=C(NO[C@H](COCc1ccccc1)C(=O)Nc1ccccc1)c1cc(C(F)(F)F)cc(C(F)(F)F)c1` [Compound 2], with 6.25 µM (≈ 3.29 µg/mL); and `CC(C)C[C@@H](ONC(=O)c1cc(C(F)(F)F)cc(C(F)(F)F)c1)C(=O)Nc1ccccc1` [Compound 3], with 3.13 µM (≈ 1.45 µg/mL).

As for `CC(C)(C)OC(=O)[C@@H](COCc1ccccc1)ONC(=O)[C@@H](COCc1ccccc1)ONC(=O)c1cc(C(F)(F)F)cc(C(F)(F)F)c1` [Compound 4], the MIC was above 12.5 µM.

For `CC(C)C[C@H](ONC(=O)[C@@H](COCc1ccccc1)ONC(=O)c1cc(C(F)(F)F)cc(C(F)(F)F)c1)C(=O)OC(C)(C)C` [Compound 5], the MIC was above 12.5 µM.

Take `CC(C)C[C@H](ONC(=O)[C@H](COCc1ccccc1)ONC(=O)c1cc(C(F)(F)F)cc(C(F)(F)F)c1)C(=O)Nc1ccccc1` [Compound 6]: the MIC amounted to 3.13 µM (≈ 2.05 µg/mL). As to `CC(C)C[C@@H](ONC(=O)[C@H](COCc1ccccc1)ONC(=O)c1cc(C(F)(F)F)cc(C(F)(F)F)c1)C(=O)Nc1ccccc1` [Compound 7], the MIC stood at 3.13 µM (≈ 2.05 µg/mL). As for `CC(C)C[C@@H](ONC(=O)[C@@H](COCc1ccccc1)ONC(=O)c1cc(C(F)(F)F)cc(C(F)(F)F)c1)C(=O)Nc1ccccc1` [Compound 9], the MIC came to 3.13 µM (≈ 2.05 µg/mL). Then `O=C(NO[C@H](COCc1ccccc1)C(=O)NO[C@H](Cc1c[nH]c2ccccc12)C(=O)Nc1ccccc1)c1cc(C(F)(F)F)cc(C(F)(F)F)c1` [Compound 10], with 6.25 µM (≈ 4.55 µg/mL). `O=C(NO[C@H](COCc1ccccc1)C(=O)NO[C@@H](Cc1ccccc1)C(=O)Nc1ccccc1)c1cc(C(F)(F)F)cc(C(F)(F)F)c1` [Compound 11]: the MIC came to 3.13 µM (≈ 2.16 µg/mL). For `O=C(NO[C@H](COCc1ccccc1)C(=O)NO[C@H](COCc1ccccc1)C(=O)Nc1ccccc1)c1cc(C(F)(F)F)cc(C(F)(F)F)c1` [Compound 12], the MIC is 3.13 µM (≈ 2.25 µg/mL). With `CC(C)(C)OC[C@@H](ONC(=O)[C@@H](COCc1ccccc1)ONC(=O)c1cc(C(F)(F)F)cc(C(F)(F)F)c1)C(=O)Nc1ccccc1` [Compound 13], the MIC came to 6.25 µM (≈ 4.29 µg/mL). Then `CC(C)(C)OC(=O)C[C@@H](ONC(=O)[C@@H](COCc1ccccc1)ONC(=O)c1cc(C(F)(F)F)cc(C(F)(F)F)c1)C(=O)Nc1ccccc1` [Compound 14], with 3.13 µM (≈ 2.23 µg/mL); and `O=C(NO[C@H](COCc1ccccc1)C(=O)NO[C@H](CO)C(=O)Nc1ccccc1)c1cc(C(F)(F)F)cc(C(F)(F)F)c1` [Compound 15], with above 12.5 µM; and `O=C(CONC(=O)[C@@H](COCc1ccccc1)ONC(=O)c1cc(C(F)(F)F)cc(C(F)(F)F)c1)Nc1ccccc1` [Compound 16], with above 12.5 µM.

For `C[C@@H](ONC(=O)[C@@H](COCc1ccccc1)ONC(=O)c1cc(C(F)(F)F)cc(C(F)(F)F)c1)C(=O)Nc1ccccc1` [Compound 17], the MIC was above 12.5 µM. As for `O=C(O)C[C@@H](ONC(=O)[C@@H](COCc1ccccc1)ONC(=O)c1cc(C(F)(F)F)cc(C(F)(F)F)c1)C(=O)Nc1ccccc1` [Compound 18], the figure is above 12.5 µM; as for `CC(C)(C)OC(=O)NCCCC[C@@H](ONC(=O)[C@@H](COCc1ccccc1)ONC(=O)c1cc(C(F)(F)F)cc(C(F)(F)F)c1)C(=O)Nc1ccccc1` [Compound 19], 12.5 µM (≈ 9.63 µg/mL); as for `NCCCC[C@@H](ONC(=O)[C@@H](COCc1ccccc1)ONC(=O)c1cc(C(F)(F)F)cc(C(F)(F)F)c1)C(=O)Nc1ccccc1` [Compound 20], above 12.5 µM. Then `CC(C)C[C@H](ONC(=O)[C@@H](COCc1ccccc1)ONC(=O)c1cc(C(F)(F)F)cc(C(F)(F)F)c1)C(=O)Nc1nccs1` [Compound 21], with above 12.5 µM; and `CC(C)C[C@H](ONC(=O)[C@@H](COCc1ccccc1)ONC(=O)c1cc(C(F)(F)F)cc(C(F)(F)F)c1)C(=O)NC1CCCCC1` [Compound 22], with above 12.5 µM; and `CC(C)C[C@H](ONC(=O)[C@@H](COCc1ccccc1)ONC(=O)c1cc(C(F)(F)F)cc(C(F)(F)F)c1)C(=O)Nc1ccc2cc[nH]c2c1` [Compound 23], with above 12.5 µM. For the compound `CC(C)CNC(=O)[C@H](CC(C)C)ONC(=O)[C@@H](COCc1ccccc1)ONC(=O)c1cc(C(F)(F)F)cc(C(F)(F)F)c1` [Compound 24], the MIC was above 12.5 µM. As for `CC(C)C[C@H](ONC(=O)[C@@H](COCc1ccccc1)ONC(=O)c1cc(C(F)(F)F)cc(C(F)(F)F)c1)C(=O)Nc1cccc2cc[nH]c12` [Compound 25], the figure is 6.25 µM (≈ 4.34 µg/mL).

In the case of `CC(C)C[C@H](ONC(=O)[C@@H](COCc1ccccc1)ONC(=O)c1cc(C(F)(F)F)cc(C(F)(F)F)c1)C(=O)NC12CC3CC(CC(C3)C1)C2` [Compound 26], the MIC stood at 6.25 µM (≈ 4.46 µg/mL).

With `CC(C)C[C@H](ONC(=O)[C@@H](COCc1ccccc1)ONC(=O)c1cc(C(F)(F)F)cc(C(F)(F)F)c1)C(=O)Nc1cncnc1` [Compound 27], the MIC is above 12.5 µM. As for `CC(C)C[C@H](ONC(=O)[C@@H](COCc1ccccc1)ONC(=O)c1cc(C(F)(F)F)cc(C(F)(F)F)c1)C(=O)NC1CC1` [Compound 28], the figure is above 12.5 µM. Then `COc1ccc(NC(=O)[C@H](CC(C)C)ONC(=O)[C@@H](COCc2ccccc2)ONC(=O)c2cc(C(F)(F)F)cc(C(F)(F)F)c2)cc1` [Compound 29], with 6.25 µM (≈ 4.29 µg/mL). In the case of `Cc1cc(C)cc(NC(=O)[C@H](CC(C)C)ONC(=O)[C@@H](COCc2ccccc2)ONC(=O)c2cc(C(F)(F)F)cc(C(F)(F)F)c2)c1` [Compound 31], the MIC is 3.13 µM (≈ 2.14 µg/mL). `CC(C)C[C@H](ONC(=O)[C@@H](COCc1ccccc1)ONC(=O)c1cc(C(F)(F)F)cc(C(F)(F)F)c1)C(=O)N1CCOCC1` [Compound 32]: the MIC was above 12.5 µM.

In the case of `CC(C)C[C@H](ONC(=O)[C@@H](COCc1ccccc1)ONC(=O)c1cc(C(F)(F)F)cc(C(F)(F)F)c1)C(=O)Nc1ccc(N2CCOCC2)cc1` [Compound 33], the MIC is above 12.5 µM. For `CC(C)C[C@H](ONC(=O)[C@@H](COCc1ccccc1)ONC(=O)c1cc(C(F)(F)F)cc(C(F)(F)F)c1)C(=O)Nc1ccc2c(c1)OCO2` [Compound 34], the MIC stood at 6.25 µM (≈ 4.37 µg/mL). Take `CC(C)C[C@H](ONC(=O)[C@@H](COCc1ccccc1)ONC(=O)c1cc(C(F)(F)F)cc(C(F)(F)F)c1)C(=O)Nc1ccc(F)cc1` [Compound 36]: the MIC worked out at 3.13 µM (≈ 2.11 µg/mL). `CC(C)C[C@H](ONC(=O)[C@@H](COCc1ccccc1)ONC(=O)c1cc(C(F)(F)F)cc(C(F)(F)F)c1)C(=O)Nc1ccc(C#N)cc1` [Compound 37]: the MIC came out at 6.25 µM (≈ 4.25 µg/mL). Then `CC(C)C[C@H](ONC(=O)[C@@H](COCc1ccccc1)ONC(=O)c1cc(C(F)(F)F)cc(C(F)(F)F)c1)C(=O)Nc1ccc(C(F)(F)F)cc1` [Compound 38], with 1.56 µM (≈ 1.13 µg/mL); and `CC(C)C[C@H](ONC(=O)[C@@H](COCc1ccccc1)ONC(=O)c1cc(C(F)(F)F)cc(C(F)(F)F)c1)C(=O)Nc1ccc2ccccc2c1` [Compound 39], with 1.56 µM (≈ 1.1 µg/mL). Then `CC(C)C[C@H](ONC(=O)[C@@H](COCc1ccccc1)ONC(=O)c1cc(C(F)(F)F)cc(C(F)(F)F)c1)C(=O)NOCc1ccccc1` [Compound 40], with above 12.5 µM; and `CC(C)C[C@H](ONC(=O)[C@@H](COCc1ccccc1)ONC(=O)c1cc(C(F)(F)F)cc(C(F)(F)F)c1)C(=O)NOc1ccccc1` [Compound 41], with above 12.5 µM. As for `CC(C)C[C@H](ONC(=O)[C@@H](COCc1ccccc1)ONC(=O)C(C)(C)C)C(=O)Nc1ccc2c(c1)OC(F)(F)O2` [Compound 42], the figure is above 12.5 µM; as for `CC(C)C[C@H](ONC(=O)[C@@H](COCc1ccccc1)ONC(=O)C12CC3CC(CC(C3)C1)C2)C(=O)Nc1ccc2c(c1)OC(F)(F)O2` [Compound 43], above 12.5 µM. For the compound `CC(C)C[C@H](ONC(=O)[C@@H](COCc1ccccc1)ONC(=O)c1ccccc1)C(=O)Nc1ccc2c(c1)OC(F)(F)O2` [Compound 44], the MIC was above 12.5 µM. Then `Cc1cc(C)cc(C(=O)NO[C@H](COCc2ccccc2)C(=O)NO[C@@H](CC(C)C)C(=O)Nc2ccc3c(c2)OC(F)(F)O3)c1` [Compound 45], with above 12.5 µM; and `CC(C)C[C@H](ONC(=O)[C@@H](COCc1ccccc1)ONC(=O)c1ccc2ccccc2c1)C(=O)Nc1ccc2c(c1)OC(F)(F)O2` [Compound 46], with above 12.5 µM; and `CC(C)C[C@H](ONC(=O)[C@@H](COCc1ccccc1)ONC(=O)c1ccc(F)cc1)C(=O)Nc1ccc2c(c1)OC(F)(F)O2` [Compound 47], with above 12.5 µM. Then `CC(C)C[C@H](ONC(=O)[C@@H](COCc1ccccc1)ONC(=O)c1c(F)cccc1F)C(=O)Nc1ccc2c(c1)OC(F)(F)O2` [Compound 48], with above 12.5 µM. As for `CC(C)C[C@H](ONC(=O)[C@@H](COCc1ccccc1)ONC(=O)c1cccc2cccnc12)C(=O)Nc1ccc2c(c1)OC(F)(F)O2` [Compound 49], the figure is above 12.5 µM.
